Starred links: 1 amine or outer side, 2 acyl side, 3 side chain; linkers in the order of their positions; H or OH if unused. Positions of bridges follow the written chain, without caps; N, C: chain ends. Residues, ends and D or L forms follow the SMILES beside them. *: point of attachment. C20 diacid = O=C(O)CCCCCCCCCCCCCCCCCCC(=O)*; γGlu = O=C(O)[C@H](CCC(=O)[*:2])N[*:1]
Experiments:
[1] = Assay (III) ThT fibrillation assay for physical stability; assay type: physicochemical; conditions: ThT fibrillation assay
Procedure, shortened: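 Freshly prepared formulations, pH-adjusted, with 1 μM ThT; four or eight replicates incubated at 37 °C under 960 rpm orbital shaking. Fluorescence (ex 444/em 485 nm) read every 20 min; […]. Peptide concentration measured by RP-HPLC before and after the run.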

food intake = test: Assay (I) efficacy testing on appetite (food intake), ad libitum fed rat model; assay type: in vivo, Sprague Dawley (SD) rats; conditions: 3 nmol/kg
Procedure, shortened: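 Food consumption was logged per animal every hour up to 7 h and again at 24 h (occasionally 48 h) after a single 0.01–3 mg/kg dose, given sc, po or ip at dark-phase onset. Ad libitum fed SD rats, 200–250 g, kept on inverted light/dark cycle; vehicle group included, outliers removed by Grubbs test.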

Row | Structure (SMILES) | ThT pH 4.0 lag time (h) [1] [h] | Food intake reduction 0-24 h 3 nmol/kg (%) (food intake) | Food intake reduction 24-48 h 3 nmol/kg (%) (food intake) | ThT pH 4.0 lag time [1] [h]
1 | CC[C@H](C)[C@H](NC(=O)[C@@H]1CCCN1C(=O)CNC(=O)[C@H](Cc1ccccc1)NC(=O)[C@H](CC(N)=O)NC(=O)[C@H](CC(N)=O)NC(=O)[C@H](CO)NC(=O)[C@H](CO)NC(=O)[C@H](Cc1c[nH]cn1)NC(=O)[C@H](Cc1c[nH]cn1)NC(=O)[C@H](CC(C)C)NC(=O)[C@H](Cc1ccccc1)NC(=O)[C@H](CCC(=O)O)NC(=O)[C@H](C)NC(=O)[C@H](CC(C)C)NC(=O)[C@H](CCCNC(=N)N)NC(=O)[C@H](CCC(N)=O)NC(=O)[C@@H](NC(=O)[C@H](C)NC(=O)[C@@H]1CSSC[C@H](NC(=O)[C@H](CCC(=O)O)NC(=O)CC[C@H](NC(=O)CCCCCCCCCCCCCCCCCCC(=O)O)C(=O)O)C(=O)N[C@@H](CC(N)=O)C(=O)N[C@@H]([C@@H](C)O)C(=O)N[C@@H](C)C(=O)N[C@@H]([C@@H](C)O)C(=O)N1)[C@@H](C)O)C(=O)N[C@@H](CC(C)C)C(=O)N1CCC[C@H]1C(=O)N1CCC[C@H]1C(=O)N[C@H](C(=O)N[C@@H](CC(N)=O)C(=O)N[C@H](C(=O)NCC(=O)N[C@@H](CO)C(=O)N[C@@H](CC(N)=O)C(=O)N[C@H](C(=O)N[C@@H](Cc1ccc(O)cc1)C(N)=O)[C@@H](C)O)C(C)C)[C@@H](C)O [Example 29, N-alpha-[(S)-4-Carboxy-4-(19-carboxynonadecanoylamino)butyryl]-[Glu1,Glu14,His17]-pramlintide] ({C20 diacid-γGlu}-ECNTATCATQRLAEFLHHSSNNFGPILPPTNVGSNTY-NH2; disulfide 2-7 (inferred)) | 3 | 15 | 5 | –
2 | CC[C@H](C)[C@H](NC(=O)[C@@H]1CCCN1C(=O)CNC(=O)[C@H](Cc1ccccc1)NC(=O)[C@H](CC(N)=O)NC(=O)[C@H](CC(N)=O)NC(=O)[C@H](CO)NC(=O)[C@H](CO)NC(=O)[C@H](Cc1c[nH]cn1)NC(=O)[C@H](Cc1c[nH]cn1)NC(=O)[C@H](CC(C)C)NC(=O)[C@H](Cc1ccccc1)NC(=O)[C@H](CCC(=O)O)NC(=O)[C@H](C)NC(=O)[C@H](CC(C)C)NC(=O)[C@H](CCCNC(=N)N)NC(=O)[C@H](CCC(N)=O)NC(=O)[C@@H](NC(=O)[C@H](C)NC(=O)[C@@H]1CSSC[C@H](NC(=O)[C@H](Cc2c[nH]cn2)NC(=O)[C@H](Cc2c[nH]cn2)NC(=O)CC[C@H](NC(=O)CCCCCCCCCCCCCCCCCCC(=O)O)C(=O)O)C(=O)N[C@@H](CC(N)=O)C(=O)N[C@@H]([C@@H](C)O)C(=O)N[C@@H](C)C(=O)N[C@@H]([C@@H](C)O)C(=O)N1)[C@@H](C)O)C(=O)N[C@@H](CC(C)C)C(=O)N1CCC[C@H]1C(=O)N1CCC[C@H]1C(=O)N[C@H](C(=O)N[C@@H](CC(N)=O)C(=O)N[C@H](C(=O)NCC(=O)N[C@@H](CO)C(=O)N[C@@H](CC(N)=O)C(=O)N[C@H](C(=O)N[C@@H](Cc1ccc(O)cc1)C(N)=O)[C@@H](C)O)C(C)C)[C@@H](C)O [Example 17, N-alpha-[(S)-4-Carboxy-4-(19-carboxynonadecanoylamino)butyryl]-His-[His1,Glu14,His17]-pramlintide] ({C20 diacid-γGlu}-HHCNTATCATQRLAEFLHHSSNNFGPILPPTNVGSNTY-NH2; disulfide 3-8 (inferred); C-terminus assumed) | 30.3 | 40 | 22 | 30.3

Reference: patent US8722849B2, “Polypeptides” (Novo Nordisk A/S, priority 2011, dated 2014)
